From patent US5504191A, “Human cancer inhibitory pentapeptide methyl esters” (priority 1994, dated 1996)

Experiments:
[1] = tested on: LOX Human Melanoma Xenograph; assay: Dolastatin 10 in vivo, LOX human melanoma xenograph; conditions: nude mouse
Description: (§1) The synthesis of potentially useful peptides presents one of the most essential and promising approaches to new types of anticancer and immunosuppressant drugs. The Dolastatins, an unprecedented series of linear and cyclic antineoplastic and/or cytostatic peptides isolated from Indian Ocean sea hare Dolabella auricularia represent excellent leads for synthetic modification. The very productive sea hare Dolabella auricularia has produced a number of structurally distinct peptides with excellent antineoplastic activity. Presently Dolastatin 10, a linear pentapeptide, represents the most important member and is a potentially useful antineoplastic agent. […] Recently the total synthesis and absolute configuration of this structurally unique and biologically active peptide was discovered.

Human Mammary Xenograph = assay: Dolastatin 10 in vivo, human mammary xenograph; conditions: nude mouse, 26 μg/kg
Description: as §1

[2] = tested on: OVCAR-3 Human Ovary Xenograph; assay: Dolastatin 10 in vivo, OVCAR-3 human ovary xenograph; conditions: OVCAR-3 xenograph, nude mouse, 40 μg/kg
Description: as §1

OVCAR-3 = assay: Human cancer cell line growth inhibition, Ovarian OVCAR-3; assay type: cell-based; conditions: Ovarian OVCAR-3, 48 hrs
Description: (§2) Current research in the control of cancer in the United States is coordinated by the National Cancer Institute (NCI). To determine whether a substance has anti-cancer properties, the NCI has established a systematic protocol. […] The protocol, and the established statistical means for analyzing the results obtained by the standardized testing are fully described in the literature. See: Boyd, Dr. Michael R., Principles & Practice of Oncology, PPO Updates, Volume 3, Number 10, October 1989, for an in depth description of the testing protocol; and Paull K. D., "Display and Analysis of Patterns of Differential Activity of Drugs Against Human Tumor Cell Lines; Development of Mean Graph and COMPARE Algorithm" Journal of the National Cancer Institute Reports, Vol. 81, No. 14, Page 1088, Jul. 14, 1989 for a description of the methods of statistical analysis employed to evaluate the test results. Both of these references are incorporated herein by this reference thereto.
(§3) ED50 (P388) and GI50 (HTCL) identify the drug dose which reduces the percent tumor/cell growth to 50%. There is no mathematical difference between ED50 and GI50, both of which are calculated using the same formula. The only difference is historical usage.
(§4) TGI, means "Total Growth Inhibition" and identifies the drug dose needed to yield zero percent growth, i.e. there are just as many cells at the end of the experiment as were present at the beginning. Whether just as many cells were killed as were produced (steady state), or no growth occurred (total inhibition) cannot be distinguished.
(§5) LC50, means "Lethal Concentration 50%", and identifies the drug concentration which reduces to one-half of the cells originally present at the beginning of the experiment.
(§6) Each drug is tested at five (5) doses: 100 - 10 - 1 - 0.1 - 0.01 - μg/ml. Percent Growths are calculated for each dose. The two (or three) doses with growth values above, below, (or near to) 50% growth are used to calculate the ED50 /GI50 values using a linear regression computation. If no dose yields a growth value under 50%, the results are expressed as: ED50 >(highest dose). If no dose yields growth higher than 50% growth, then ED50 <(lowest dose). Similar calculations are performed for the TGI at 0% growth, and at -50% growth for the LC50.
(§7) At the start of each experiment, cells from the in vitro cell cultures are inoculated into the appropriate tubes or microtiter plates. One set of control tubes/plates is immediately counted to determine the number of cells at the start of the experiment. This is the "baseline count" or "Tzero reading". At the end of the experiment (48 hrs later), a second set of control tubes/plates is analyzed to determine the "Control Growth" value. The growth (or death) of cells relative to the initial quantity of cells is used to define the "Percent of Growth."

SF-295 = assay: Human cancer cell line growth inhibition, CNS SF-295; assay type: cell-based; conditions: CNS SF-295, 48 hrs
Description: as §2, §3, §4, §5, §6, §7

A498 = assay: Human cancer cell line growth inhibition, Renal A498; assay type: cell-based; conditions: Renal A498, 48 hrs
Description: as §2, §3, §4, §5, §6, §7

NCI-H460 = assay: Human cancer cell line growth inhibition, Lung-NSC NCI-H460; assay type: cell-based; conditions: Lung-NSC NCI-H460, 48 hrs
Description: as §2, §3, §4, §5, §6, §7

KM20L2 = assay: Human cancer cell line growth inhibition, Colon KM20L2; assay type: cell-based; conditions: Colon KM20L2, 48 hrs
Description: as §2, §3, §4, §5, §6, §7

SK-MEL-5 = assay: Human cancer cell line growth inhibition, Melanoma SK-MEL-5; assay type: cell-based; conditions: Melanoma SK-MEL-5, 48 hrs
Description: as §2, §3, §4, §5, §6, §7

PS-388 Mouse Leukemia = assay: PS-388 mouse leukemia cell growth inhibition (ED50); assay type: cell-based; conditions: Mouse Leukemia PS-388
Protocol: as §3, §6, §7

Dolastatin 10
33%: cures ([1]; 6.5 μg/kg)
17%: cures ([1]; 3.25 μg/kg)
50%: cures ([1]; 13 μg/kg)
300: T/C [2]
170: T/C ([1]; 3.25 μg/kg)
67%: cures ([1]; 26 μg/kg)
toxic: T/C ([1]; 52 μg/kg)
Toxic: T/C (Human Mammary Xenograph)

Dov--Val--Dil--Dap--His--OMe [10b]
> 0.01 µg/mL: LC-50 (OVCAR-3) | TGI (OVCAR-3) | GI-50 (SF-295) | LC-50 (SF-295) | TGI (SF-295) | GI-50 (A498) | LC-50 (A498) | TGI (A498) | GI-50 (NCI-H460) | LC-50 (NCI-H460) | TGI (NCI-H460) | LC-50 (KM20L2) | TGI (KM20L2) | LC-50 (SK-MEL-5) | TGI (SK-MEL-5) | ED-50 (PS-388 Mouse Leukemia)
0.00099 µg/mL: GI-50 (KM20L2)
0.0008 µg/mL: GI-50 (SK-MEL-5)
0.00071 µg/mL: GI-50 (OVCAR-3)

Dov--Val--Dil--Dap--N^ε --Z--Lys--OMe [10a]
> 0.01 µg/mL: LC-50 (OVCAR-3) | TGI (OVCAR-3) | GI-50 (SF-295) | LC-50 (SF-295) | TGI (SF-295) | GI-50 (A498) | LC-50 (A498) | TGI (A498) | GI-50 (NCI-H460) | LC-50 (NCI-H460) | TGI (NCI-H460) | GI-50 (KM20L2) | LC-50 (KM20L2) | TGI (KM20L2) | LC-50 (SK-MEL-5) | TGI (SK-MEL-5) | ED-50 (PS-388 Mouse Leukemia)
0.003 µg/mL: GI-50 (SK-MEL-5)
0.0069 µg/mL: GI-50 (OVCAR-3)

N^α,N^ε --di--Z--Lys--Val--Dil--Dap--His--OMe [11a]
0.29 µg/mL: GI-50 (KM20L2)
0.08 µg/mL: GI-50 (SK-MEL-5)
> 1 µg/mL: LC-50 (OVCAR-3) | LC-50 (SF-295) | TGI (SF-295) | GI-50 (A498) | LC-50 (A498) | TGI (A498) | LC-50 (NCI-H460) | TGI (NCI-H460) | LC-50 (KM20L2) | TGI (KM20L2) | LC-50 (SK-MEL-5) | TGI (SK-MEL-5) | ED-50 (PS-388 Mouse Leukemia)
0.27 µg/mL: GI-50 (NCI-H460)
0.12 µg/mL: GI-50 (OVCAR-3)
0.67 µg/mL: TGI (OVCAR-3) | GI-50 (SF-295)

N^γ,N^γ,N^α --tri--Z--Arg--Val--Dil--Dap--Met--OMe [11c]
0.25 µg/mL: GI-50 (NCI-H460)
0.62 µg/mL: TGI (NCI-H460)
0.074 µg/mL: GI-50 (OVCAR-3)
0.6 µg/mL: GI-50 (A498)
> 1 µg/mL: LC-50 (OVCAR-3) | LC-50 (SF-295) | TGI (SF-295) | LC-50 (A498) | TGI (A498) | LC-50 (NCI-H460) | LC-50 (KM20L2) | TGI (KM20L2) | LC-50 (SK-MEL-5) | TGI (SK-MEL-5)
0.38 µg/mL: GI-50 (SK-MEL-5)
0.28 µg/mL: GI-50 (KM20L2)
0.13 µg/mL: GI-50 (SF-295)
0.329 µg/mL: ED-50 (PS-388 Mouse Leukemia)
0.74 µg/mL: TGI (OVCAR-3)

N^γ,N^γ,N^α --tri--Z--Arg--Val--Dil--Dap--N^ε --Z--Lys--OMe [11b]
> 1 µg/mL: GI-50 (OVCAR-3) | LC-50 (OVCAR-3) | TGI (OVCAR-3) | GI-50 (SF-295) | LC-50 (SF-295) | TGI (SF-295) | GI-50 (A498) | LC-50 (A498) | TGI (A498) | GI-50 (NCI-H460) | LC-50 (NCI-H460) | TGI (NCI-H460) | GI-50 (KM20L2) | LC-50 (KM20L2) | TGI (KM20L2) | GI-50 (SK-MEL-5) | LC-50 (SK-MEL-5) | TGI (SK-MEL-5)
0.513 µg/mL: ED-50 (PS-388 Mouse Leukemia)
